Experimental data: patent publication US10835500B2, “Medicament for accelerated wound healing” (Symrise AG, priority 2014, dated 2020)
Entries after “also recorded” stand apart in the source; their conditions may differ.

Experiments:
[1] = tested on: primary keratinocytes; assay: Calcium imaging in primary keratinocytes; assay type: cell-based, human; details: primary keratinocytes; for calcium signals on repeated stimulation: repeated application (500 μM in FIG. 9)
Description: The Sandalore®-induced signal cascade in HaCaT cells and primary keratinocytes was pharmacologically characterized using the calcium imaging technique and specific blockers of signal cascade proteins. An investigation was first conducted in order to determine whether the calcium signals are caused by calcium inflow from the extracellular space. For this purpose, a calcium-free extracellular solution was used with a calcium chelator (EGTA) added. […] In order to investigate the role of adenylyl cyclase, the specific blockers SQ-22536 and MDL-12330A were used. […] The efficacy of the blockers was tested in this case with histamine, which activated the PLC signalling pathway (FIG. 11c).
Effect of the OR2AT4 ligand Sandalore® on intracellular calcium concentration of cultivated keratinocytes. […] 100 μM of ATP was used at the end of each measurement as a positive control stimulus. Right: Quantitative evaluation of calcium signals in 4-time application of Sandalore® (500 μM). Shown are the mean values of the individual applications including standard error. Mann-Whitney U test. *: p<0.05. C) and D): dose-dependent activation of HaCaT cells in calcium imaging experiments. Shown are the mean amplitudes including standard error at various concentrations in the first (C) and fourth (D) Sandalore® application. Number of cells measured: 0.0125 mM (39), 0.025 mM (30), 0.1 mM (46), 0.5 mM (34), 1 mM (63), 2 mM (41), 10 mM (36).
A) Representative calcium imaging traces of HaCaT cells (left) and primary keratinocytes (right) incubated with the gap junction blocker 1-octanol (500 μM) and then repeatedly stimulated with Sandalore® (500 μM, horizontal bars) (blue trace). […] 100 μM of ATP was used at the end of each measurement as a positive control stimulus. Quantitative evaluation of HaCaT cells (B) and primary keratinocytes (C) incubated with the gap junction blockers 1-octanol (500 μM) or carbenoxolone (10 μM) and then repeatedly stimulated with Sandalore® (500 μM) or Lyral (1 mM) in calcium imaging experiments. Shown are the mean values of the individual applications including standard error relative to the control measurements (Sandalore® application without blocker). Mann-Whitney U test. Number of cells measured: Sandalore®+1-octanol (HaCaT (110), keratinocytes (26)); Sandalore®+carbenoxolone: HaCaT (74); Lyral+carbenoxolone: HaCaT (43). ***: p<0.001.
Pharmacological characterization of Sandalore®-induced signal cascade in human keratinocytes. A)-D). Shown are representative calcium imaging traces of primary keratinocytes in the presence of a blocker (blue). The horizontal bars correspond to the application times. 100 μM of ATP was used at the end of each measurement as a positive control stimulus. A) Measurement with calcium-free extracellular solution (+10 mM EGTA). B) Measurement with the adenylyl cyclase blocker SQ-22536 (100 μM). C) Use of the phospholipase-C blocker U-73122 (10 μM). 100 μM of histamine was taken as a positive control. D) Measurement with the CNG channel blocker L-cis-diltiazem (150 μM). E) Overview of pharmacological measurement of HaCaT cells and primary keratinocytes (Kera). The mean amplitudes relative to the control measurements (dashed line) are indicated. MDL-12330A (40 μM). EGTA: calcium-free Ringer (HaCaT n=46, Kera n=52), SQ: SQ-22536 (HaCaT n=60, Kera n=26), MDL: MDL-12330A (HaCaT n=69, Kera n=24), U-73122 (HaCaT n=41, Kera n=25), L-cis-D.: L-cis-diltiazem (HaCaT n=41, Kera n=25). Mann-Whitney U test. ***: p<0.001. F) Determination of the cAMP contents of HaCaT cells after stimulation with Sandalore® by means of cAMP-Glo™ assays. The dots show the mean cAMP content including standard error after 10-minute Sandalore® stimulation (1 μM-10,000 μM). Significance was determined between HaCaT cells stimulated with Sandalore® and stimulated with an equivalent volume of DMSO (0.2%). Kruskal-Wallis Test with multiple comparison; n=3 experiments. *: p<0.05.

[2] = tested on: HaCaT cells; assay: Proliferation assay (CyQuant) on HaCaT cells; assay type: cell-based, human
Description: It was next investigated whether Sandalore® has an effect on the growth behavior of skin cells. For this purpose, HaCaT cells were again stimulated for five days with Sandalore®, and cell count determination was carried out by means of a proliferation assay. […] In order to verify that this increase in proliferation is induced via activation of OR2AT4, HaCaT cells were transfected with siRNA or scRNA respectively, and the proliferation assay was repeated.
In addition, the cell count was determined after costimulation (1:1) by Sandalore® (500 μM) with the antagonists Oxyphenylon (500 μM) or Phenirat (500 μM). […] The effect was significant for Oxyphenylon.
Effect of Sandalore® long-term stimulation on morphology, growth, and migration processes in keratinocytes. A) Phase contrast image and PI stains of HaCaT cells and primary keratinocytes after stimulation with Sandalore® (500 μM) or 0.1% DMSO (control) for five days. On positive PI staining, the cell nuclei are stained red. Scale: 100 μm. B) Evaluation of the proliferation assay carried out with the CyQuant Cell Proliferation Kit on HaCaT cells after 5-day stimulation with 500 μM of Sandalore® or 0.1% DMSO (control). For the RNA interference experiments, the cells were transfected with siRNA or scRNA on the day before Sandalore® stimulation. Shown is the mean cell count including standard error relative to untreated cells. Mann-Whitney U test; n=3 experiments. *: p<0.05; **: p<0.01. S: Sandalore. C) Agarose assay for determination of migration of HaCaT cells. Top: Transmitted light images of HaCaT cells that have migrated in the direction of Sandalore® (500 μM) or 0.1% DMSO. The growth margin of the cells was surrounded in black. Scale: 250 μm. Bottom: Evaluation of the proliferation assay. The longest path traversed by the cells and the overgrown area were measured and compared to the control (0.1% DMSO). Paired two-sided T test. Mean values including standard error; n=4 experiments. **: p<0.01; ***: p<0.001.

Compound	calcium signals on repeated stimulation [1]	effect of antagonist alone on proliferation ([2]; antagonist alone)	proliferation after costimulation with Sandalore ([2]; costimulation 1:1, Sandalore 500 μM + antagonist 500 μM)	share of cells repeatedly stimulated ([1]; calcium imaging)	calcium signals on repeated stimulation ([1]; listed as Sandalore)	increase of proliferation compared to the control (0.1% DMSO) ([2]; 5-day stimulation, 500 μM) [%]
CC1=CCC(CCC(C)CO)C1(C)C (stereo not shown) [Brahmanol®]	significant sensitization	–	–	–	–	–
CC(=O)CCc1ccc(O)cc1 [Oxyphenylon]	–	no significant effect	proliferation was reduced. The effect was significant	–	–	–
CC1=CCC(CCC(C)C(C)O)C1(C)C (stereo not shown) [Sandalore®]	significant sensitization; also recorded: induced calcium signals	–	–	80-90%	significant sensitization	33
